Data published in patent US11407728B2, “Derivatives of EPA endocannabinoid epoxides as anti-inflammatory, anti-cancerous, anti-angiogenc and antiplatelet aggregation compounds” (The Board of Trustees of the University of Illinois, priority 2017, dated 2022).

Tests used:
recombinant sEH = molecular target: T1, recombinant sEH (Homo sapiens, UniProt P34913); assay: Soluble epoxide hydrolase (sEH) hydrolysis kinetics; type: in vitro ADME; settings: 8,9-EEQ-EA versus 17,18 EEQ-EA
T1 sequence (P34913 1-555): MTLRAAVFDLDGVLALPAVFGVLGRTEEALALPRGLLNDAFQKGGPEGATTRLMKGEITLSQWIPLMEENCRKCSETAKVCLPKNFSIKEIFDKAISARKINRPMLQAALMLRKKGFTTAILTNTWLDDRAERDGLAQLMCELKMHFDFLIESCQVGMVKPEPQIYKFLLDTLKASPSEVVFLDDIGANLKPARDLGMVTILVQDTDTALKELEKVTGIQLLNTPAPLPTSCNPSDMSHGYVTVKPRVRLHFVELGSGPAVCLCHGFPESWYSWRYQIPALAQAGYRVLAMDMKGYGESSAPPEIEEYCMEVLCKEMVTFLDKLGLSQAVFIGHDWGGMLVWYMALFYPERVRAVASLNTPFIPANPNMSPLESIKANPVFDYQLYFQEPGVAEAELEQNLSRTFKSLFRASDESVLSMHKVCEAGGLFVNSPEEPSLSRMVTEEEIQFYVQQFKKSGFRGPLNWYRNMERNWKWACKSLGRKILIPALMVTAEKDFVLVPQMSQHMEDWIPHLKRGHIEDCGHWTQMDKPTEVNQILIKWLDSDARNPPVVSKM
Method: (§1) FIG. 4A, FIG. 4B, FIG. 4C and FIG. 4D show FAAH (FIG. 4B and FIG. 4D) and sEH (FIG. 4A and FIG. 4C) hydrolysis of 17,18-EEQ-EA and 8,9-EEQ-EA, respectively. To determine the rate of hydrolysis by sEH, increasing substrate (8,9-EEQ-EA) concentrations were incubated at 37° C. with sEH ([E]final=6 nM). For Vmax and Km values, plots were fitted to the Michaelis-Menten equation using Origin Pro. For FAAH hydrolysis, membranes from rat forebrain tissue were isolated for time-based hydrolysis. Incubations were performed with 100 μg of forebrain protein and 50 μM of substrate for 5, 20 and 40 minutes at 37° C. Both reactions were measured for product conversion using LC-MS/MS.
For soluble epoxide hydrolase (sEH) kinetics, increasing concentrations of substrates (8,9-EEQ-EA (FIG. 4C) and 17,18-EEQ-EA (FIG. 4A)) were incubated with recombinant sEH (final [6 nM]) in a 0.1 mL reaction containing NaPO4 (0.1 M, pH 7.4), bovine serum albumin (0.1 mg/ml) at 37° C. The enzymatic reaction was stopped after 5 min with equal volume of methanol with AUDA (0.5 μM) and centrifuged at 10,000 g for 10 min. The supernatant was saved and quantitated using LC-MS/MS. Data was fit to kinetic curves and the Michaelis-Menten equation was used to calculate Vmax and Km.

[1] = system: mouse BV-2 microglial cells; assay: Anti-inflammatory assay in BV-2 microglial cells, IL-6 secretion (ELISA) after LPS stimulation; type: cell-based; settings: BV-2 cells pre-incubated 4 hours with varying concentrations, 25 ng/mL LPS, media collected at 24 hours
Method: FIG. 3A, FIG. 3B, FIG. 3C and FIG. 3D show the dose-dependent NO and Il-6 studies for 17,18-EEQ-EA and 8,9-EEQ-EA. BV-2 microglial cells were pre-incubated with varying concentrations of 17,18-EEQ-EA or 8,9-EEQ-EA for 4 hours followed by LPS (25 ng/mL) stimulation. Culture medium was collected after 24 hours and analyzed for NO (A, C) and IL-6 (B, D) production. Significant P values are indicated as *** (P≤0.001), ** (P≤0.01), and * (P≤0.05). Values are expressed as mean±SEM and +/− indicates LPS added or LPS not added. * represents P<0.05, ** represents P<0.01, *** represents P<0.001, **** represents P<0.0001 relative to LPS.
Experiments were performed with mouse BV-2 microglial cells. Cells were grown and maintained in Dulbecco's modified Eagle's medium supplemented with 10% fetal bovine serum, 1% streptomycin and penicillin at 37° C. in a 5% CO2 humidified air atmosphere. BV-2 cells were seeded in 24-well plates (200K cells/mL) and grown to 80-90% confluency. […] To determine nitrite and IL-6 production, media was collected at 24 hours and the production of nitric oxide (NO) was determined by using the Greiss method and IL-6 secretion was measured using ELISA (no. 583371; Cayman Chemical).

[2] = molecular target: T2, fatty acid amide hydrolase (FAAH) (Rattus norvegicus, UniProt P97612); assay: Fatty acid amide hydrolase (FAAH) hydrolysis in rat forebrain membranes; type: in vitro ADME; settings: 50 μM substrate, 100 μg rat forebrain membrane, 5, 20 and 40 minutes, 37° C.
T2 construct: incubated with 100 μg forebrain membrane; from tissue; host or cells: rat forebrain membranes
T2 sequence (P97612 1-579): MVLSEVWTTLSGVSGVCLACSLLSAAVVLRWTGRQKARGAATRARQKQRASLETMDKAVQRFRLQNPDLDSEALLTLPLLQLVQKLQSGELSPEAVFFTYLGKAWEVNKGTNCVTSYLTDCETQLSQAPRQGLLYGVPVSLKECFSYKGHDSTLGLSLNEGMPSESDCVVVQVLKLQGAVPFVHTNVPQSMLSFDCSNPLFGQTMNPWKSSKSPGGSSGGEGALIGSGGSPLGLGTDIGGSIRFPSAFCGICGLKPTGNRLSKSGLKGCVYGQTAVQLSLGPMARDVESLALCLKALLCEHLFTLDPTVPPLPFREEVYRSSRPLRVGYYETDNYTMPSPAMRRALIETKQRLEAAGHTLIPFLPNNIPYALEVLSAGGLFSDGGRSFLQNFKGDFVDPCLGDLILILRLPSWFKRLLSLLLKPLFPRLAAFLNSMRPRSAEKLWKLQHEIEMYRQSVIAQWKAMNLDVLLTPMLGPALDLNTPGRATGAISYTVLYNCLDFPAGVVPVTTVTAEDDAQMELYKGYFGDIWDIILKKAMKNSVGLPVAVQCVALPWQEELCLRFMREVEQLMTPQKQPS
Method: as §1
For fatty acid amide hydrolase (FAAH) kinetics (FIG. 4B and FIG. 4D), rat forebrain membranes were homogenized in buffer (50 mM Tris pH 7.4, 1 mM EDTA and 3 mM MgCl2) and membrane pellet was collected as previously described. 8,9-EEQ-EA or 13,14-EDP-EA (50 μM) was incubated with 100 μg forebrain membrane containing 50 mM Tris (pH 7.4), 1 mM EDTA, 3 mM MgCl2 in a 0.5 mL reaction. Linearity of the reactions was confirmed at 5, 20 and 40 minutes. Reactions were stopped with methanol containing 1 mM PMSF and centrifuged at 10,000 g for 10 min to collect supernatant via LC-MS/MS.

[3] = molecular target: T3, CNR1 (cannabinoid receptor 1) (Homo sapiens, UniProt P21554); assay: Presto-Tango β-arrestin recruitment assay, CNR1; type: cell-based; settings: CNR1-transfected HTLA cells, luminescence, 1 μM AUDA; read-out: EC50 CNR1 activation
T3 construct: Tango fusion module; by own knowledge of the PRESTO-Tango design: V2 tail, TEV cleavage site, tTA; (C); own knowledge of the PRESTO-Tango design; (N); host or cells: HTLA cells
Description: (§2) FIG. 5A and FIG. 5B show dose-response curves for cannabinoid receptor 1 (CNR1) and cannabinoid receptor 2 (CNR2), respectively. The dose response curves were generated by monitoring the relative luminescence of cannabinoid receptor 1 (CNR1) and cannabinoid receptor 2 (CNR2) of PRESTO-Tango gene-transfected HTLA cells for 17,18-EEQ-EA, EPEA, and CP 55940. Values shown are the mean±SEM of experiments performed multiple times (n=3-7) *P<0.05, **P<0.01, and ***P<0.001.
(§3) Binding of the parent compounds to putative receptors CNR1 and CNR2 (cannabinoid receptors 1 & 2) was measured by a Presto-Tango assay (FIG. 5A and FIG. 5B, respectively). These receptors are responsible for many downstream effects of marijuana derivatives as well as other endocannabinoids that have been previously reported in literature and this study explores if our compounds bind to these receptors. HTLA cells were received from the Roth Lab and CNR1 and CNR2 plasmids were purchased from Addgene. […] The following day, media was removed and 40 μL of diluted Bright-Glo solution (Promega, Madison. Wis.) was added to each well and incubated in the dark for 20 min at room temperature before luminescence recordings. Relative luminescence units (RLU) values were normalized to % receptor response, plotted as a function of compound concentration and analyzed using “DoseResp” in OriginPro.

[4] = molecular target: T4, CNR2 (cannabinoid receptor 2) (Homo sapiens, UniProt P34972); assay: Presto-Tango β-arrestin recruitment assay, CNR2; type: cell-based; settings: CNR2-transfected HTLA cells, luminescence, 1 μM AUDA; read-out: EC50 CNR2 activation
T4 construct: Tango fusion module; by own knowledge of the PRESTO-Tango design: V2 tail, TEV cleavage site, tTA; (C); own knowledge of the PRESTO-Tango design; (N); host or cells: HTLA cells
Description: as §2, §3

T4 sequence (P34972 whole entry, the tested form may be a part): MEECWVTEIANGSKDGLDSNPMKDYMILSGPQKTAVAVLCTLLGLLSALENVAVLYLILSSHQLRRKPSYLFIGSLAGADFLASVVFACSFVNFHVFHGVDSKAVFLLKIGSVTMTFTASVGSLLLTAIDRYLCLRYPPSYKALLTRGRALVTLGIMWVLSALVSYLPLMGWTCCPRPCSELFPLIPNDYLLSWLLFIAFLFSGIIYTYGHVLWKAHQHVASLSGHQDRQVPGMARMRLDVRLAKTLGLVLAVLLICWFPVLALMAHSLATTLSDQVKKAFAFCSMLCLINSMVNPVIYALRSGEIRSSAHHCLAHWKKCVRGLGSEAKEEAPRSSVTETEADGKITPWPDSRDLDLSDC
T3 sequence (P21554 whole entry, the tested form may be a part): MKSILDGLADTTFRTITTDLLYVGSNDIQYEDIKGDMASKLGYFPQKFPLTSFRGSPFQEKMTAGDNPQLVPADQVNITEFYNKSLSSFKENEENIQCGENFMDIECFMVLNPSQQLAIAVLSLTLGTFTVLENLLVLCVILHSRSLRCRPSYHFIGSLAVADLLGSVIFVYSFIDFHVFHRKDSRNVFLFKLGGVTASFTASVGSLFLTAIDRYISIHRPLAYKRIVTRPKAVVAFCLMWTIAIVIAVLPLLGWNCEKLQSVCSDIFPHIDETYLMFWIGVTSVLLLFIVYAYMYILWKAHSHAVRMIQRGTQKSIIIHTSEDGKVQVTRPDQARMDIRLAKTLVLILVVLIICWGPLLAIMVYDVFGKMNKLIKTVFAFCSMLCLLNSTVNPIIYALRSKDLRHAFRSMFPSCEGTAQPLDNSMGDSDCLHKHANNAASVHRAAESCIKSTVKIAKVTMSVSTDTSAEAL

SMILES	sEH turnover rate relative to 17,18 EEQ-EA (times) (recombinant sEH)	IL-6 secretion [1]	rate of FAAH hydrolysis to the corresponding EEQ [2]	EC50 [3] [nM]	EC50 [4] [nM]
CC/C=C\C/C=C\C/C=C\CC1OC1C/C=C\CCCC(=O)NCCO (stereo not drawn) [8,9-EEQ-EA]	4	reduced IL-6 in a dose-dependent manner	comparable to the rate of 17, 18-EEQ-EA to 17,18-EEQ		
CCC1OC1C/C=C\C/C=C\C/C=C\C/C=C\CCCC(=O)NCCO (stereo not drawn) [17,18-EEQ-EA]		reduced IL-6 in a dose-dependent manner		18.5	1.4
